Patent US11046699B2, “Pyrazolo-pyrimidin-amino-cycloalkyl compounds and their therapeutic uses” (RAPT THERAPEUTICS, INC., priority 2018, dated 2021)
Read-outs that look alike come from different tables or passages of the source.

Molecular target: GCN2 (Homo sapiens, UniProt Q9P2K8)
Experiment: GCN2 enzymatic endpoint assay: phosphorylation of GFP-eIF2α measured by TR-FRET (Lanthascreen)
Type: biochemical
In short: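 Kinase activity is measured as phosphorylation of GFP-labelled eIF2α (80 nM) with ATP at 2 μM. Incubation runs 90 minutes at room temperature before EDTA quench and terbium-antibody detection.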

[1] = tested as described in Example 77, compound and/or hydrochloride, dihydrochloride or trifluoroacetic acid salt, read-out: IC 50 Activity

Chain of GCN2 (Q9P2K8 whole entry): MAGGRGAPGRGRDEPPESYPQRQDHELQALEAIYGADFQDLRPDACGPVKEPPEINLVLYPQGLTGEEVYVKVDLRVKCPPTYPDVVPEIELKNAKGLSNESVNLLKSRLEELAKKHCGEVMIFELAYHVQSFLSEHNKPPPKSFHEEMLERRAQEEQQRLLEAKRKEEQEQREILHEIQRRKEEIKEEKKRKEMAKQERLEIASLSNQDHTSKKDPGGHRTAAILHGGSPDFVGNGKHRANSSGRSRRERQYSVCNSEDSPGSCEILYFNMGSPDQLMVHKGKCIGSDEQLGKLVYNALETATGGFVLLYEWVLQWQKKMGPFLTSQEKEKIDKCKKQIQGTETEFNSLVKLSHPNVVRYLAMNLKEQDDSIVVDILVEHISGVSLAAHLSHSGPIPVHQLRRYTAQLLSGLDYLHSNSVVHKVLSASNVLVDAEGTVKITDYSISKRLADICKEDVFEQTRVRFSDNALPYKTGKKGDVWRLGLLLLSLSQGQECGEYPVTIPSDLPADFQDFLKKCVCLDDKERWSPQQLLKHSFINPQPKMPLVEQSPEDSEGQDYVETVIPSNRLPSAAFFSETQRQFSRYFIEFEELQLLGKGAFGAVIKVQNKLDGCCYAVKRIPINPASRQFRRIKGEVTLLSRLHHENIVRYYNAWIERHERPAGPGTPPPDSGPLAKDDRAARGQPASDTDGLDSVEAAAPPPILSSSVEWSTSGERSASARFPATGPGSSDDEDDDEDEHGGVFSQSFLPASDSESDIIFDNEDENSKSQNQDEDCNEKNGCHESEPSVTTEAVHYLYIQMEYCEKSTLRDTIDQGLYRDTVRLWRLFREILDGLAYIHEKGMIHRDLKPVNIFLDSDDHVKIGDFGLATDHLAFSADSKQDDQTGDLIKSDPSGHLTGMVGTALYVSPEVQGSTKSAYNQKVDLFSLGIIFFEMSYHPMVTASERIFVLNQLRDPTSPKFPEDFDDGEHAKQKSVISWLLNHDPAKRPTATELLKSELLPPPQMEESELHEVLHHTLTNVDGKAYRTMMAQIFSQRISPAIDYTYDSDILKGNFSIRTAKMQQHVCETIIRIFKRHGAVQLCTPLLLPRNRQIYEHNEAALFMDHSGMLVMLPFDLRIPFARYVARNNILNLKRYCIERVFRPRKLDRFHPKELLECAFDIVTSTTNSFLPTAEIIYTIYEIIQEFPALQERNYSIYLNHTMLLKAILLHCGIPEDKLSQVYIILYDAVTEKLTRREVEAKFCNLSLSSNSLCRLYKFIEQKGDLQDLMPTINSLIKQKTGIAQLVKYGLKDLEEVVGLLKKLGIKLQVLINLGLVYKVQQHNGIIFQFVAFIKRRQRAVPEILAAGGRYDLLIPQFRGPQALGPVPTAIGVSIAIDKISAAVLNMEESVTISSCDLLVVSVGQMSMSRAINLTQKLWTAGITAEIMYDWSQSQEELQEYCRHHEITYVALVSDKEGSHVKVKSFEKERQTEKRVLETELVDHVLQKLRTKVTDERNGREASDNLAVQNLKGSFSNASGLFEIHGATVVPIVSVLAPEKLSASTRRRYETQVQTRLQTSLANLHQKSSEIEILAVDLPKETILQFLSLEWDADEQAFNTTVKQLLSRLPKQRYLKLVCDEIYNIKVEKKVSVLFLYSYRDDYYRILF

CNC(=O)[C@]1(C)CC[C@@H](Nc2ncc3c(Br)nn(-c4cc(CS(C)(=O)=O)c5ncccc5c4)c3n2)C1 [(1R,3R)-3-[[3-bromo-1-[8-(methylsulfonyl-methyl)-6-quinolyl]pyrazolo[3,4-d]pyrimidin-6-yl]amino]-N,1-dimethyl-cyclopentanecarboxamide]
IC50 [1]: 25 to 200 nM

COCCNC(=O)[C@@H]1CC[C@@H](Nc2ncc3c(Br)nn(-c4ccc5cn[nH]c5c4)c3n2)C1 [(1R,3R)-3-((3-bromo-1-(1H-indazol-6-yl)-1H-pyrazolo[3,4-d]pyrimidin-6-yl)amino)-N-(2-methoxyethyl)cyclopentane-1-carboxamide]
IC50 [1]: 500 to 1000 nM

CNC(=O)[C@]1(C)CC[C@@H](Nc2ncc3c(Br)nn(-c4cc(Cl)cc(CCNS(C)(=O)=O)c4)c3n2)C1
IC50 [1]: 25 to 200 nM

O[C@@H]1CCC[C@@H]1Nc1ncc2c(Br)nn(-c3cc(F)c4ncccc4c3)c2n1 [(1R,2S)-2-[[3-bromo-1-(8-fluoro-6-quinolyl)pyrazolo[3,4-d]pyrimidin-6-yl]amino]cyclopentanol]
IC50 [1]: 25 to 200 nM

CC1(C(=O)NCC(F)(F)F)CC[C@@H](Nc2ncc3c(Br)nn(-c4cc(F)c5ncccc5c4)c3n2)C1 (stereo partly drawn) [(3R)-3-[[3-bromo-1-(8-fluoro-6-quinolyl)pyrazolo[3,4-d]pyrimidin-6-yl]amino]-1-methyl-N-(2,2,2-trifluoroethyl)cyclo-pentanecarboxamide]
IC50 [1]: 25 to 200 nM

Cn1ccnc1[C@@H]1CC[C@@H](Nc2ncc3c(Br)nn(-c4ccc5ncccc5c4)c3n2)C1 (relative stereo) [3-bromo-N-(trans-3-(1-methyl-1H-imidazol-2-yl)cyclopentyl)-1-(quinolin-6-yl)-1H-pyrazolo[3,4-d]pyrimidin-6-amine]
IC50 [1]: 25 to 200 nM

CN(CC1(C)COC1)C(=O)C1(C)CC[C@@H](Nc2ncc3c(Br)nn(-c4cc(F)c5ncccc5c4)c3n2)C1 (some centres unmarked)
IC50 [1]: < 25 nM

CNC(=O)[C@]1(C)CC[C@@H](Nc2ncc3c(Br)nn(-c4ccc5c(c4)CCN(C(=O)C4CN(C)C4)C5)c3n2)C1 [(1R,3R)-3-[[3-bromo-1-[2-(1-methylazetidine-3-carbonyl)-3,4-dihydro-1H-isoquinolin-6-yl]pyrazolo[3,4-d]pyrimidin-6-yl]amino]-N,1-dimethyl-cyclopentanecarboxamide]
IC50 [1]: 25 to 200 nM

CNC(=O)[C@@H]1CC[C@@H](Nc2ncc3c(Br)nn(-c4ccn5nccc5c4)c3n2)C1 [(1R,3R)-3-[(3-bromo-1-pyrazolo[1,5-a]pyridin-5-yl-pyrazolo[3,4-d]pyrimidin-6-yl)amino]-N-methyl-cyclopentane-carboxamide]
IC50 [1]: 25 to 200 nM

CN(CCNC(=O)[C@@H]1CC[C@@H](Nc2ncc3c(Br)nn(-c4ccc5ncccc5c4)c3n2)C1)CC(=O)O [N-(2-((1R,3R)-3-((3-bromo-1-(quinolin-6-yl)-1H-pyrazolo[3,4-d]pyrimidin-6-yl)amino)cyclopentane-1-carboxamido)ethyl)-N-methylglycine]
IC50 [1]: 25 to 200 nM

O=C([C@@H]1CC[C@@H](Nc2ncc3c(Br)nn(-c4ccc5ncccc5c4)c3n2)C1)N1C2CCC1COC2 [(3-oxa-8-azabicyclo[3.2.1]octan-8-yl)((1R,3R)-3-((3-bromo-1-(quinolin-6-yl)-1H-pyrazolo [3,4-d]pyrimidin-6-yl)amino)cyclopentyl) methanone]
IC50 [1]: 25 to 200 nM

CC1(NC(=O)[C@@H]2CC[C@@H](Nc3ncc4c(Br)nn(-c5ccc6ncccc6c5)c4n3)C2)CCOC1 (stereo partly drawn) [(1R,3R)-3-((3-bromo-1-(quinolin-6-yl)-1H-pyrazolo[3,4-d]pyrimidin-6-yl)amino)-N-(3-methyltetrahydrofuran-3-yl)cyclopentane-1-carboxamide]
IC50 [1]: 25 to 200 nM

CNC(=O)[C@]1(C)CC[C@@H](Nc2ncc3c(Br)nn(-c4ccc5c(c4)c(=O)n(C)c(=O)n5C)c3n2)C1
IC50 [1]: < 25 nM

CNC(=O)[C@]1(C)CC[C@@H](Nc2ncc3c(Br)nn(-c4ccc(-c5nnc(C)s5)cc4)c3n2)C1 [Example 38, (1R,3R)-3-((3-bromo-1-(4-(5-methyl-1,3,4-thiadiazol-2-yl)phenyl)-1H-pyrazolo[3,4-d]pyrimidin-6-yl)amino)-N,1-dimethylcyclopentane-1-carboxamide]
IC50 (GCN2 biochemical IC50, 4 nM GCN2, 2 μM ATP, 80 nM GFP-eIF2α, 90 min RT, read-out: GCN2 activity): < 25 nM

CNC(=O)[C@]1(C)CC[C@@H](Nc2ncc3c(Br)nn(-c4ccc5c(c4)C(=O)NC5=O)c3n2)C1 [(1R,3R)-3-[[3-bromo-1-(1,3-dioxo-isoindolin-5-yl)pyrazolo[3,4-d]pyrimidin-6-yl]amino]-N,1-dimethyl-cyclopentanecarboxamide]
IC50 [1]: 25 to 200 nM

CNC(=O)[C@@H]1CC[C@@H](Nc2ncc3c(Br)nn(-c4ccc5nc(C)c(F)cc5c4)c3n2)C1 [(1R,3R)-3-((3-bromo-1-(3-fluoro-2-methyl-quinolin-6-yl)-1H-pyrazolo[3,4-d]pyrimidin-6-yl)amino)-N-methylcyclopentane-1-carboxamide]
IC50 [1]: 25 to 200 nM

Cc1nnc(-c2ccc(-n3nc(Br)c4cnc(NC5CC(P(C)(C)=O)C5)nc43)cc2CCS(C)(=O)=O)s1 (centres unmarked) [3-bromo-N-(3-dimethylphosphorylcyclo-butyl)-1-[3-(2-methylsulfonylethyl)-4-(5-methyl-1,3,4-thiadiazol-2-yl)phenyl] pyrazolo[3,4-d]pyrimidin-6-amine]
IC50 [1]: 25 to 200 nM

O=C(N[C@H]1C[C@H](O)C1)[C@@H]1CC[C@@H](Nc2ncc3c(Br)nn(-c4cc(F)c5ncccc5c4)c3n2)C1
IC50 [1]: 25 to 200 nM

CNC(=O)C1(C)CC[C@@H](Nc2ncc3c(Br)nn(-c4ccc5nc(C)cc(Cl)c5c4)c3n2)C1 (stereo partly drawn) [(3R)-3-[[3-bromo-1-(4-chloro-2-methyl-6-quinolyl)pyrazolo[3,4-d]pyrimidin-6-yl]amino]-N,1-dimethyl-cyclopentane-carboxamide]
IC50 [1]: 25 to 200 nM

CNC(=O)[C@]1(C)CC[C@@H](Nc2ncc3c(Br)nn(-c4cc(NC(=O)CCN)c5ncccc5c4)c3n2)C1 [(1R,3R)-3-[[1-[8-(3-aminopropanoylamino)-6-quinolyl]-3-bromo-pyrazolo[3,4-d]pyrimidin-6-yl]amino]-N,1-dimethyl-cyclopentanecarboxamide]
IC50 [1]: < 25 nM

CNC(=O)[C@]1(C)CC[C@@H](Nc2ncc3c(Br)nn(-c4ccc5ncc(C(C)(C)O)cc5c4)c3n2)C1 [(1R,3R)-3-[[3-bromo-1-[3-(1-hydroxy-1-methyl-ethyl)-6-quinolyl]pyrazolo[3,4-d]pyrimidin-6-yl]amino]-N,1-dimethyl-cyclopentanecarboxamide]
IC50 [1]: 25 to 200 nM

CNC(=O)[C@]1(C)CC[C@@H](Nc2ncc3c(Br)nn(-c4ccc(-c5ncco5)c([C@H](C)C#N)c4)c3n2)C1 [(1R,3R)-3-[[3-bromo-1-[3-[(1S)-1-cyanoethyl]-4-oxazol-2-yl-phenyl]pyrazolo[3,4-d]pyrimidin-6-yl]amino]-N,1-dimethyl-cyclopentane-carboxamide]
IC50 [1]: 25 to 200 nM

CNC(=O)[C@]1(C)CC[C@@H](Nc2ncc3c(Br)nn(-c4cc(/C=C/P(C)(C)=O)c5ncccc5c4)c3n2)C1 [(1R,3R)-3-[[3-bromo-1-[8-[(E)-2-dimethylphosphorylvinyl]-6-quinolyl]pyrazolo[3,4-d]pyrimidin-6-yl]amino]-N,1-dimethyl-cyclopentanecarboxamide]
IC50 [1]: 25 to 200 nM

Cc1nnc(-c2ccc(-n3nc(Br)c4cnc(N[C@@H]5CC[C@](C(=O)N6CCNCC6)(C(C)C)C5)nc43)cc2CCC#N)s1 [3-[5-[3-bromo-6-[[(1R,3R)-3-isopropyl-3-(piperazine-1-carbonyl)cyclopentyl]amino]pyrazolo[3,4-d]pyrimidin-1-yl]-2-(5-methyl-1,3,4-thiadiazol-2-yl)phenyl] propanenitrile]
IC50 [1]: < 25 nM

O=C([C@@H]1CC[C@@H](Nc2ncc3c(Br)nn(-c4ccc5ncccc5c4)c3n2)C1)N1CCN(CCO)CC1 [((1R,3R)-3-((3-bromo-1-(quinolin-6-yl)-1H-pyrazolo[3,4-d]pyrimidin-6-yl)amino)cyclopentyl)(4-(2-hydroxyethyl)piperazin-1-yl)methanone]
IC50 [1]: 25 to 200 nM

CNC(=O)[C@]1(C)CC[C@@H](Nc2ncc3c(Br)nn(-c4ccc(-c5nnc(C)o5)c(F)c4)c3n2)C1 [(1R,3R)-3-[[3-bromo-1-[3-fluoro-4-(5-methyl-1,3,4-oxadiazol-2-yl)phenyl]pyrazolo[3,4-d]pyrimidin-6-yl]amino]-N,1-dimethyl-cyclopentanecarboxamide]
IC50 [1]: 25 to 200 nM

CNC(=O)[C@]1(CC(F)F)CC[C@@H](Nc2ncc3c(Br)nn(-c4cc(CCO)c5ncccc5c4)c3n2)C1 [(1R,3R)-3-[[3-bromo-1-[8-(2-hydroxyethyl)-6-quinolyl]pyrazolo[3,4-d]pyrimidin-6-yl]amino]-1-(2,2-difluoroethyl)-N-methyl-cyclo-pentanecarboxamide]
IC50 [1]: 25 to 200 nM

Cc1nnc(-c2ccc(-n3nc(Br)c4cnc(NC5CCOC5)nc43)cc2)s1 (centres unmarked) [3-bromo-1-[4-(5-methyl-1,3,4-thiadiazol-2-yl)phenyl]-N-tetrahydrofuran-3-yl-pyrazolo [3,4-d]pyrimidin-6-amine]
IC50 [1]: 25 to 200 nM

CNC(=O)[C@@H]1CC[C@@H](Nc2ncc3c(Br)nn(-c4cc(F)c5nc(C)c(F)cc5c4)c3n2)C1 [(1R,3R)-3-((3-bromo-1-(3,8-difluoro-2-methyl-quinolin-6-yl)-1H-pyrazolo[3,4-d]pyrimidin-6-yl)amino)-N-methylcyclopentane-1-carboxamide]
IC50 [1]: 25 to 200 nM

CNC(=O)[C@]1(C)CC[C@@H](Nc2ncc3c(Br)nn(-c4cc([C@H](C)N)c5nccnc5c4)c3n2)C1 [(1R,3R)-3-[[1-[8-[(1S)-1-aminoethyl]quinoxalin-6-yl]-3-bromo-pyrazolo [3,4-d]pyrimidin-6-yl]amino]-N,1-dimethyl-cyclopentanecarboxamide]
IC50 [1]: 25 to 200 nM

CNC(=O)[C@]1(C)CC[C@@H](Nc2ncc3c(Br)nn(-c4cc(C)c(C#N)c(C)c4)c3n2)C1 [(1R,3R)-3-[[3-bromo-1-(4-cyano-3,5-dimethyl-phenyl)pyrazolo[3,4-d]pyrimidin-6-yl]amino]-N,1-dimethyl-cyclopentanecarboxamide]
IC50 [1]: 25 to 200 nM

CNC(=O)[C@@H]1CC[C@@H](Nc2ncc3c(Br)nn(-c4ccc(-c5nnn[nH]5)cc4)c3n2)C1 [(1R,3R)-3-((1-(4-(1H-tetrazol-5-yl)phenyl)-3-bromo-1H-pyrazolo[3,4-d]pyrimidin-6-yl)amino)-N-methylcyclopentane-1-carboxamide]
IC50 [1]: 25 to 200 nM
